The source of these data is paper PMC7828231, “Delphinidin Increases the Sensitivity of Ovarian Cancer Cell Lines to 3-bromopyruvate” (International Journal of Molecular Sciences, 2021).

Type in all cases: cell-based, human
Test [1] concerns MRC-5 fibroblasts. As to the kind of experiment: ATP level (CellTiter-Glo). As to conditions: 25-µM D, 40 µM 3-BP, 24 h. On the procedure: (§1) To determine the ATP level in the cells, the CellTiter-Glo® Luminescent Cell Viability Assay (Promega) was used. This method is based on the ATP-dependent conversion of luciferin to the luminescent oxyluciferin. Briefly, cells were seeded in a white/clear bottom 96-well plate with a density of 1 × 10^4/well (SKOV3 and PEO1) or 7.5 × 10^3/well (MRC-5). After 24-h incubation, the cells were treated with 25-µM D, a IC50 concentration of 3-BP (SKOV3 and MRC-5: 40 µM and PEO1: 20 µM) and both compounds simultaneously. The ATP level was determined after 24-h exposure to the tested compounds. The plate was equilibrated at room temperature for approximately 25 minutes. Next, 100 µL of the CellTiter-Glo® Reagent was added to each well, and the plate was shaken for 2 minutes. Then, the plate was left at room temperature for 10 minutes, and the luminescence was measured in a Spark multimode microplate reader (Tecan Group LTD., Männedorf, Switzerland).

The subject of test [2] is SKOV3 cells. As to the kind of experiment: ATP level (CellTiter-Glo). The settings on record: 25-µM D, 40 µM 3-BP, 24 h. On the procedure: as §1
In test [3] the test system is PEO1 cells. The test can be described thus: ATP level (CellTiter-Glo). As to conditions: 25-µM D, 20 µM 3-BP, 24 h. On the procedure:
as §1
For orientation: In ATP-based viability assays light output follows the ATP content of the culture.

The test system of test [4] is MRC-5 fibroblasts. As to the kind of experiment: GSH content (OPA). The settings on record: 25-µM D, 40 µM 3-BP, 24 h. The protocol: (§2) The content of reduced glutathione was assayed with OPA [63]. Briefly, the cells were seeded in wells of a transparent 96-well plate at a density of 7.5 × 10^3/well (MRC-5) or 1 × 10^4/well (cancer cells) and allowed to attach at 37 °C for 24 h. After 24-h treatment with the tested compounds, the medium was removed, the cells were washed with PBS (150 µL per well) and then added with 60 µL/well of cold redox quenching buffer (RQB) containing 20-mM HCl, 5% TCA, 5-mM DTPA and 10-mM L-ascorbic acid. The plate was shaken for 5 minutes and centrifuged for 5 minutes at 4000 rpm. Next, the supernatant was transferred into two 96-well black plates (“+NEM” and “–NEM”; 25 µL/well). Within the “+NEM” plate, 4 µL/well of freshly prepared 7.5-mM NEM in cold RQB buffer was added. Then, 1-M phosphate buffer (pH 7.0) was added into both plates (40 µL/well), and the plates were shaken for 5 min at 700 rpm. Finally, 160 µL/well of cold 0.1-M phosphate buffer (pH 6.8) and 25 µL/well of freshly prepared 0.5% OPA in methanol were added into both plates. Both plates were incubated for 30 minutes at room temperature with constant shaking. Fluorescence was then measured at 355/430 nm. The protein contents in the cell lysates were determined according to Lowry et al.. The concentration of reduced glutathione was determined by subtracting […] and calculated with respect to the protein content.

For test [5], the system named is SKOV3 cells. The test can be described thus: GSH content (OPA). The settings on record: 25-µM D, 40 µM 3-BP, 24 h. On the procedure: as §2
For test [6], the system named is PEO1 cells. The test can be described thus: GSH content (OPA). The settings on record: 25-µM D, 20 µM 3-BP, 24 h. The protocol:
as §2

For test [7], the system named is PEO1 cells. As to the kind of experiment: Mitochondrial membrane potential (JC-1). As to conditions: 25-µM D, 20 µM 3-BP, 24 h. On the procedure: Changes of mitochondrial membrane potential was evaluated using 5,5′,6,6′-tetrachloro-1,1′,3,3′-tetraethyl-imidacarbocyanine iodide, 5,5′,6,6′-tetrachloro-1,1′,3,3′-tetraethylbenzimidazolocarbocyanine iodide (JC-1) with a Mitochondrial Membrane Potential Assay Kit.
The cells were seeded into black plates and treated as mentioned before. After 24h incubation with the studied compounds, the medium was discharged and replaced with 100x diluted JC-1 reagent in complete culture medium and incubated for 30 min in a CO2 incubator. Next, the plate was centrifuged at 4000 rpm for 5 min and afterwards the reagent was aspirated, and cells were washed with 150 μL/well Cell-Based Assay Buffer and centrifuged once more. After removing the supernatant, 100 μL/well of the new buffer was added. Fluorescence was measured at 540/570 nm (red fluorescence) and 485/535 nm (green fluorescence). The results were presented as a ratio of green to red fluorescence intensity ratio.

Test [8] concerns SKOV3 cells. The test can be described thus: Atto-488-phalloidin and Mitotracker labeling (confocal). The settings on record: 25-µM D, 40-µM 3-BP, 24 h. The protocol: (§3) Cells were seeded on an 8-well chamber slide (Lab-Tek™ II Chamber Slide™ System cat. no. 154534, Thermo Scientific, Waltham, MA, USA) at a density of 2.5 × 10^4 cells/chamber and allowed to attach at 37 °C. Subsequently, PEO1 and SKOV3 cells were treated with 25-µM D, 20-µM or 40-µM 3-BP (depending on the cell line) or both substances together for 24 h. Following the treatment, the medium was removed and replaced with 200-nM solution of Mitotracker Deep Red FM (i) (cat. no. M22426, Thermo Scientific, Waltham, MA, USA) in PBS and incubated for 30 min; in a CO2 incubator, the cells were washed with PBS (300 μL/well) and fixed with 200-μL/well 3.7% formaldehyde for 10 min. Then, the cells were washed with PBS (200 μL/well), permeabilized with 0.1% Triton X-100 solution (200 μL/well) for 10 min and washed with PBS (700 μL/well).
(§4) Following the treatment, the medium was removed and replaced with 150 μL/well of phalloidin working solution (ii) (prepared according to the manufacturer’s protocols) and incubated for 60 min.
(§5) After staining i or ii, the fixed cells were washed again, 600-nM solution of DAPI in PBS was added (200 µL/well), the cells were incubated at room temperature for 60 minutes and their micrographs were taken using a Zeiss LSM 710 inverted confocal microscope (Oberkochen, Germany). The ratio of fluorescence intensity of the mitochondria and cytoskeleton (expressed as a mean gray value) was calculated using ImageJ software. The corrected total cell fluorescence (CTFT) per cell was calculated according to https://theolb.readthedocs.io/en/latest/imaging/measuring-cell-fluorescence-using-imagej.html.

Test [9] deals with PEO1 cells. The test is described as above. The settings on record: 24 h. On the procedure:
as §3, §4, §5

Test [10] relates to SKOV3 cells. As to the kind of experiment: Mitochondrial mass (NAO). The settings on record: 25-µM D, 40 µM 3-BP, 24 h. On the procedure: (§6) Cells were seeded at the density of 2 × 10^5 cells/well onto a 24-well plate and cultured as stated before. Following 24-hour exposure to the studied compounds, the cells were trypsinized, counted and transferred to separate Eppendorf tubes, and then centrifuged for 6 minutes at 3000 rpm. Subsequently the supernatant was discharged and the cells were washed with 1 mL of PBS and centrifuged again. Afterwards, 1 mL of 10 μM NAO solution in PBS was added into the samples, and incubated for 10 min in a CO2 incubator at 37 °C. Next, the cells were centrifuged and the pellet was washed with PBS, and resuspended in 300 μL of PBS. Each sample was transferred into a 96-well black plate (100 μL/well; 3 repetitions). Fluorescence was measured at 435/535 nm. The results were determined in relation to the cell count.

Test [11] has as its system PEO1 cells. As to the kind of experiment: Mitochondrial mass (NAO). The settings on record: 25-µM D, 20 µM 3-BP, 24 h. On the procedure:
as §6

`O=C(O)C(=O)CBr` [3-BP, 3-bromopyruvic acid]: the ATP content entry in the test on MRC-5 fibroblasts [1] is “not affected”; in the test with SKOV3 cells [2], “neither 3-BP nor D affected”; with PEO1 cells [3], “decrease”. Besides, the GSH level entry is listed as “neither 3-BP or D alone modified” in the test with MRC-5 fibroblasts [4], “increased” in the test with SKOV3 cells [5] and “decreased” in the test with PEO1 cells [6]. Besides, the “mitochondrial potential (JC-1 fluorescence ratio)” value in the test on PEO1 cells [7] is reported as “decreased”. In addition, the “decrease in the intensity of staining with Atto-488-phalloidin with respect to the control” value in the test with SKOV3 cells [8] was “about 33%”. The “decrease in the intensity of staining with Mitotracker Red with respect to the control” value in the test on SKOV3 cells [8] is listed as “about 39%”; in the test on PEO1 cells [9] (25-µM D, 20-µM 3-BP), “about 7%”. In the test on PEO1 cells [9] (20-µM 3-BP), the “increase in the intensity of staining with Atto-488-phalloidin with respect to the control” value was ~51%. Further, the mitochondrial mass result in the test with SKOV3 cells [10] and in the test on PEO1 cells [11] was “increased” in each case.
`Oc1cc(O)c2cc(O)c(-c3cc(O)c(O)c(O)c3)[o+]c2c1` [Delphinidin chloride, 3,3′,4′,5,5′,7-hexahydroxyflavylium]: the ATP content entry in the test on MRC-5 fibroblasts [1] is “not affected”; in the test with SKOV3 cells [2] it was “neither 3-BP nor D affected”; with PEO1 cells [3] it was “did not change”. Also, the GSH level result is on record as “neither 3-BP or D alone modified” in the test with MRC-5 fibroblasts [4], “without effect” in the test with SKOV3 cells [5] and “did not affect” in the test with PEO1 cells [6]. Moreover, the “mitochondrial potential (JC-1 fluorescence ratio)” value in the test with PEO1 cells [7] is reported as “decreased”. The “decrease in the intensity of staining with Atto-488-phalloidin with respect to the control” value with SKOV3 cells [8] is reported as ~67%; in the test with PEO1 cells [9] (25-µM D, 20-µM 3-BP) it was ~17%. In addition, the “decrease in the intensity of staining with Mitotracker Red with respect to the control” value in the test on SKOV3 cells [8] is on record as ~94%. Moreover, in the test on PEO1 cells [9] (25-µM D), the “increase in the intensity of staining with Mitotracker Red with respect to the control” value is reported as “about 7%”. Further, the figures for the mitochondrial mass result in the test with SKOV3 cells [10] and in the test on PEO1 cells [11] were “decreased” and “increased”, respectively.
